# Test results as given in patent publication US12077586B2, “Bispecific antibodies for use in the treatment of hematological malignancies” (LAVA THERAPEUTICS N.V., priority 2018, dated 2024).
# B1: 5C8: Vγ9Vδ2-specific VHH binding to the Vδ2 chain of the TCR, SEQ ID NO: 149 (protein)
# VHH: EVQLVESGGGLVQAGGSLRLSCAASGRPFSNYAMGWFRQAPGKEREFVAAISWSGGSTSYADSVKGRFTISRDNAKNTVYLQMNSPKPEDTAIYYCAAQFSGADYGFGRLGIRGYEYDYWGQGTQVTVSS
# modifications: antibody sequence
# How the values were obtained:
# [1] = system: CLL patient-derived Vγ9Vδ2-T cells; assay: Proliferation assay of CLL patient-derived Vγ9Vδ2-T cells; assay type: cell-based, human; conditions: 1 week
# From the text: (§1) (A-C) Activation of and cytokine production and degranulation by patient-derived Vγ9Vδ2-T cells. […] (D) Lysis of primary CLL cells by autologous Vγ9Vδ2-T cells. […] Live CLL cells were quantified by flow cytometry using counting beads (n=5). (E) Expansion of patient-derived Vγ9Vδ2-T cells. […] Percentage Vγ9Vδ2-T cells after 1 week (n=8). Data are presented as mean and SD. *P<0.05, **P<0.01, ***P<0.001. (A-D: one-way ANOVA followed by Dunnett's post hoc test compared to medium control; E: paired t-test).
# For proliferation assays, PBMCs from CL patients were enriched for T cells by depletion of CD19^+ CLL cells. After attachment of irradiated (30Gy) […] fibroblasts to culture plates, T cell enriched PBMC (≤10% CD19^+) and purified CD19^+ (≥90% CD19^+) PBMC fractions were added in a 2:1 (CD19:CD19^+) ratio.
# healthy B cells = assay: Mixed coculture cytotoxicity (Vγ9Vδ2-T cell: B cell: CLL cell 1:1:1), healthy B cells; assay type: cell-based, human; conditions: 6 hours
# Method: (§2) (A) Specific lysis of Jeko-1 cells after pretreatment with mevastatin or pamidronate. […] (B) CD1d expression on B cells from healthy donor PBMCs. (C) Specific lysis of healthy B cells and CLL cells after pretreatment with ABP. Healthy B cells (isolated from healthy donor PBMCs, CFSE-labeled) and CLL cells (isolated from CLL PBMCs, CTV-labeled) were mixed in 1:1 ratio and pretreated with 50 μM pamidronate or medium control for 2 hours. […] (D) Specific lysis of Jeko-1 cells after blockade of CD1d or CD277. Jeko-1 cells were incubated with an anti-CD1d antibody (5 μg/mL), anti-CD277 antibody (10 μg/mL), anti-CD1d and anti-CD277 antibodies, or medium control for 10 minutes. […] Specific lysis is calculated by correcting for background cell death in condition without Vγ9Vδ2-T cells. Data represent mean and SD. *P<0.05, **P<0.01, ***P<0.001. (A: two-way ANOVA followed by Dunnett's post hoc test comparing control vs each pretreatment; C: two-way ANOVA followed by Sidak's post hoc test comparing untreated vs ABP pre-treated D: one-way ANOVA followed by Dunnett's post hoc test compared to medium control).
# (§3) If indicated, target cells were pretreated with 25 μM mevastatin (M2537, Sigma-Aldrich), 50 μM aminobisphosphonates (pamidronate, #12J08RD, TEVA Pharmachemie, Haarlem, the Netherlands) or medium control for 2 hours.
# (§4) Healthy B cells express low levels of CD1d (FIG. 12B). […]
# [2] = system: wildtype CD1d-negative MM.1s cells; assay: Cytotoxicity assay with Vγ9Vδ2-T cell lines, wildtype MM.1s; assay type: cell-based, human; conditions: overnight coculture with Vγ9Vδ2-T cells
# Method: (§5) (A) Specific lysis of Jeko-1 cell line (n=3). (B) CD1d expression on WT or CD1d-transfected MM.1s cell line (blank histogram: CD1d-stained, grey filled histogram: fluorescence minus one control). (C) Specific lysis of WT or CD1d-transfected MM.1s cell line (n=4). (D) Specific lysis of primary CLL cells with negative, low or high CD1d expression (n=4 per group). Specific lysis is calculated by correcting for background cell death in condition without Vγ9Vδ2-T cells. Data represent mean and SD. *P<0.05, **P<0.01, ****P<0.0001. (A: one-way ANOVA followed by Dunnett's post hoc test compared to untreated condition, C: two-way ANOVA followed by Sidak's post hoc test comparing WT vs CD1d for each concentration, D: two-way ANOVA followed by Tukey's post hoc test comparing each CD1d group for each concentration).
# (§6) Target cells were then cocultured overnight with Vγ9Vδ2-T cell lines in a 1:1 ratio unless otherwise indicated. Viability was measured using Mitotracker Orange (25-minute incubation at 37° C., M7510) and To-pro-3 (10-minute incubation at room temperature; T3605, both Thermo Fisher Scientific).
# CLL cells = assay: Mixed coculture cytotoxicity (Vγ9Vδ2-T cell: B cell: CLL cell 1:1:1), CLL cells; assay type: cell-based, human; conditions: 6 hours
# Method: as §2, §3, §4
# [3] = system: CD1d-transfected MM.1s cells; assay: VHH binding to CD1d-transfected MM.1s cells (flow cytometry); parameters: species or system human; conditions: read-out: apparent Kd
# [4] = system: CD1d-transfected MM.1s cells; assay: Cytotoxicity assay with Vγ9Vδ2-T cell lines, CD1d-transfected MM.1s; assay type: cell-based, human; conditions: overnight coculture with Vγ9Vδ2-T cells
# Method: as §5, §6
# autologous CLL cells = assay: Cytotoxicity assay with patient-derived Vγ9Vδ2-T cells against autologous CLL cells; assay type: cell-based, human; conditions: 10 nM; CD3:PBMC 5:1 or 20:1
# From the text: as §1
# For cytotoxicity assays performed with patient-derived Vγ9Vδ2-T cells, CD3^+ cells were enriched from patient PBMC by magnetic bead selection (130-050-101, Miltenyi Biotec; ≥90% purity). […] Viable cells were then quantified by fluorescence-labeled antibodies and viability dyes in combination with counting beads (01-1234-42, Thermo Fisher Scientific).
# Vγ9Vδ2-T cells [5] = assay: Cytokine and degranulation assay, Vγ9Vδ2-T cells cocultured with Jeko-1 cells; assay type: cell-based, human; conditions: bispecific antibody alone, without target cells
# Jeko-1 cells [6] = assay: Cytotoxicity assay with Vγ9Vδ2-T cell lines, Jeko-1 target cells; assay type: cell-based, human
# Method: as §6, §3
# (§7) If indicated, cells were cultured with the indicated concentrations of all-trans retinoic acid (ATRA; R2625, Sigma-Aldrich) for 48 hours unless otherwise indicated. ATRA was washed away prior to cytotoxicity assays.
# If indicated, target cells were pre-incubated with 5 μg/mL anti-CD1d mAb (clone 51.1, 350304, Biolegend, San Diego, CA, USA) and/or 10 μg/mL anti-CD277 mAb (clone 103.2, Creative Biolabs, Shirley, NY, USA) for 10 minutes.
# primary CLL cells = assay: Cytotoxicity assay with Vγ9Vδ2-T cell lines, primary CLL cells; assay type: cell-based
# Method: as §5, §6, §7
# [7] = system: CLL patient-derived Vγ9Vδ2-T cells; assay: Activation, cytokine and degranulation assay with autologous CLL patient-derived Vγ9Vδ2-T cells; assay type: cell-based, human
# From the text: as §1
# [8] = system: CD1d expression on primary CLL cells; assay: CD1d expression on primary CLL cells after ATRA treatment; assay type: cell-based, human; conditions: for Increase of CD1d levels: primary CLL cells, 48 hours
# Method: (§8) (A) CD1d expression on Jeko-1 cells after 48 hours of ATRA treatment. (B) Time-curve of CD1d expression upon ATRA treatment (n=3). (C) Viability of Jeko-1 cells after 48 hours of treatment with 100 nM ATRA (n=4). (D) Lysis of Jeko-1 cells after pretreatment with ATRA. […] (E) CD1d expression on primary CLL cells after 48 hours of different concentrations of ATRA or medium control treatment (n=17). (F) Lysis of CLL cells after pretreatment with ATRA. […] Specific lysis is calculated by correcting for background cell death in condition without Vγ9Vδ2-T cells. Data represent mean and SD. *P<0.05, ***P<0.001, ****P<0.0001. (C: paired t-test; D, F: two-way ANOVA followed by Sidak's post hoc test comparing control vs ATRA-treated for each concentration; E: Friedman test followed by Dunnett's post hoc test compared to medium control).
# (§9) Cells were stained with antibodies and viability dyes (Table 4) and measured on an LSR Fortessa or FACS Canto cytometer (BD Biosciences, Franklin Lakes, NJ, USA). Samples were analyzed with Flowjo MacV10. Cytofix/Cytoperm reagent was used for detection of intracellular cytokines (BD Biosciences). Relative CD1d expression is defined as geometric MFI (CD1d stained)—geometric MFI (fluorescence minus one).
# as §7
# Jeko-1 cells [9] = assay: Viability of Jeko-1 cells after ATRA treatment; assay type: cell-based, human; conditions: 100 nM ATRA, 48 hours
# Method: as §8, §7
# [10] = system: CD1d expression on Jeko-1 cells; assay: CD1d expression on Jeko-1 cells after ATRA treatment; assay type: cell-based, human; conditions: 48 hours
# Method: as §8, §9
# If indicated, cells were cultured with the indicated concentrations of all-trans retinoic acid (ATRA; R2625, Sigma-Aldrich) for 48 hours unless otherwise indicated. […]
# Vγ9 chain = molecular target: T1, Vγ9 chain (Homo sapiens, UniProt Q99603, T7A); conditions: Mean Fluorescence Index class; γδ T-cells expressing Vγ9 chain paired with non Vδ2 chain; cited from earlier work
# T1 construct: host or cells: γδ T-cells expressing a Vγ9 chain paired with a non-Vδ2 chain
# T1 sequence (Q99603 with tags, fused parts or gaps T7A limits assumed): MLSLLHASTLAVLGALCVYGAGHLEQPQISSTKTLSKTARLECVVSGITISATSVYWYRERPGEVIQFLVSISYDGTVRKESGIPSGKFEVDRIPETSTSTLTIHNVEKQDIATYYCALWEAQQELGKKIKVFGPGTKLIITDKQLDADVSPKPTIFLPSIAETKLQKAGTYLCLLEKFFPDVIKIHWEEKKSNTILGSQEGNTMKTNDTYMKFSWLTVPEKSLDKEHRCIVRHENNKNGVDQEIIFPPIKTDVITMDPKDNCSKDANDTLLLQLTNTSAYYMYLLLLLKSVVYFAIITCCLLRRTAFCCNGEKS
# T1 sequence (P07766 23-207 partner): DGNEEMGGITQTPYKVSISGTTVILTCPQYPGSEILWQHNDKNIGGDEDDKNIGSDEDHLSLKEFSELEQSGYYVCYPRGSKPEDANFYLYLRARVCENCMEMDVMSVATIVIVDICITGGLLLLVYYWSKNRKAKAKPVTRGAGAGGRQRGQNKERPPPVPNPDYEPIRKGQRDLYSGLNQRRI
# T1 sequence (P09693 23-182 partner): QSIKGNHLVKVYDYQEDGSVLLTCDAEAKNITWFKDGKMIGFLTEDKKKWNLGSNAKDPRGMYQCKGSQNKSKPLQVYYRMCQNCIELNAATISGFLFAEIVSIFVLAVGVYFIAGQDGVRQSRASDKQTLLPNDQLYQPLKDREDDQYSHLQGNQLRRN
# T1 sequence (P04234 22-171 partner): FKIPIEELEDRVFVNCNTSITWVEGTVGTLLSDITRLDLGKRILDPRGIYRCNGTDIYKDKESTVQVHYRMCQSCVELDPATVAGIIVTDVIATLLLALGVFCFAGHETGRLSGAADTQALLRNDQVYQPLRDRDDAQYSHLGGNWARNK
# T1 sequence (P20963 22-164 partner): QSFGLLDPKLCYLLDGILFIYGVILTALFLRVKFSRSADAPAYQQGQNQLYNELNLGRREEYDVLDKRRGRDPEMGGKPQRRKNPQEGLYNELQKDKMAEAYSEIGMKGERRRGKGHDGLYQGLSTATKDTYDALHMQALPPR
# complete Vγ9Vδ2 TCR = molecular target: T2, complete Vγ9Vδ2 TCR (Homo sapiens, UniProt A0JD36+Q99603, T7A); conditions: Mean Fluorescence Index class; cited from earlier work
# T2 construct: host or cells: γδ T-cells expressing the complete Vγ9Vδ2 TCR
# T2 sequence (Q99603 with tags, fused parts or gaps T7A limits assumed): as the sequence (Q99603 with tags, fused parts or gaps T7A limits assumed) above
# T2 sequence (A0JD36 with tags, fused parts or gaps, stated change not applied): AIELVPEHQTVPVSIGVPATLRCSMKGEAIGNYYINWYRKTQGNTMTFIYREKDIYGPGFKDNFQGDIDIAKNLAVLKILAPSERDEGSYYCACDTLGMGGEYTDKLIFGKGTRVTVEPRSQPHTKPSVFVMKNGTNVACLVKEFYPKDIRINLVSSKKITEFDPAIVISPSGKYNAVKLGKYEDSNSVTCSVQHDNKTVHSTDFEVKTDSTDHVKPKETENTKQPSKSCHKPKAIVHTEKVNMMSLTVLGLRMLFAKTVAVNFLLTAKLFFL
# T2 sequence (P07766 23-207 partner): as the sequence (P07766 23-207 partner) above
# T2 sequence (P09693 23-182 partner): as the sequence (P09693 23-182 partner) above
# T2 sequence (P04234 22-171 partner): as the sequence (P04234 22-171 partner) above
# T2 sequence (P20963 22-164 partner): as the sequence (P20963 22-164 partner) above
# Vδ2 chain = molecular target: T3, Vδ2 chain (Homo sapiens, UniProt A0JD36); conditions: Mean Fluorescence Index class; γδ T-cells expressing Vδ2 chain paired with non Vγ9 chain; cited from earlier work
# T3 construct: host or cells: γδ T-cells expressing a Vδ2 chain paired with a non-Vγ9 chain
# T3 sequence (A0JD36 with tags, fused parts or gaps): as the sequence (A0JD36 with tags, fused parts or gaps, stated change not applied) above
# T3 sequence (P07766 23-207 partner): as the sequence (P07766 23-207 partner) above
# T3 sequence (P09693 23-182 partner): as the sequence (P09693 23-182 partner) above
# T3 sequence (P04234 22-171 partner): as the sequence (P04234 22-171 partner) above
# T3 sequence (P20963 22-164 partner): as the sequence (P20963 22-164 partner) above
# Vγ9Vδ2-T cells [11] = conditions: previous work; cited from earlier work
# [12] = system: γδ T-cells not expressing any of the Vγ9Vδ2 TCR chains; conditions: Mean Fluorescence Index class; cells not expressing any Vγ9Vδ2 TCR chain; cited from earlier work
# [13] = 10 pM 1D7-5C8, with ABP (50 μM pamidronate pretreatment)
# [14] = 100 nM, overnight coculture with Vγ9Vδ2-T cells 1:1
molecule,measurement,setting,value
"1D7-5C8: CD1d-Vδ2 bispecific VHH: 1D7 (N-terminal) joined to 5C8 (C-terminal) with Gly4Ser-linker, SEQ ID NO: 165",Percentage of Vγ9Vδ2-T cells within the T cell fraction,"[1]; IL-2 50 IU/mL and 50 nM 1D7-5C8, baseline 1.2%",5.6%±4.7
same,Percentage of Vγ9Vδ2-T cells with versus without antibody,"[1]; IL-2 50 IU/mL, 50 nM 1D7-5C8",3.1 fold
same,Lysis of healthy B cells,"healthy B cells; 10 pM 1D7-5C8, no ABP",4.8%±0.6
same,Lysis of healthy B cells,healthy B cells; [13],5.4%±4.5
same,Lysis of wildtype MM.1s cells,[2],had no effect on lysis of the wildtype cells
same,Lysis of CLL cells,"CLL cells; 10 pM 1D7-5C8, no ABP",19.6%±4.8
same,Lysis of CLL cells,CLL cells; [13],25.1%±5.2
same,Kd,[3],0.4 nM
same,Lysis of CD1d+ MM.1s cells,[4],clearly increased lysis
same,Lysis of autologous CLL cells by patient-derived Vγ9Vδ2-T cells,autologous CLL cells,enables autologous tumor lysis at relatively low E:T ratios
same,IFN-γ production and degranulation of Vγ9Vδ2-T cells,Vγ9Vδ2-T cells [5],did not produce IFN-γ and hardly degranulated
same,Lysis of Jeko-1 cells,Jeko-1 cells [6]; 10 pM 1D7-5C8 with CD1d-blocking antibody (5 μg/mL),13.7%±1.0
same,Lysis of Jeko-1 cells,Jeko-1 cells [6]; 10 pM 1D7-5C8 with CD1d and CD277 simultaneously blocked,9.4%±0.8
same,Lysis of Jeko-1 cells,"Jeko-1 cells [6]; 10 nM, overnight coculture with Vγ9Vδ2-T cells 1:1",75.2%±21.0
same,Decline of 1D7-5C8-induced lysis,Jeko-1 cells [6]; CD1d and CD277 simultaneously blocked,20.2%
same,Target cell lysis,Jeko-1 cells [6]; in the absence of Vγ9Vδ2-T cells,did not induce target cell lysis
same,Decrease of 1D7-5C8-induced lysis,"Jeko-1 cells [6]; with CD1d-blocking antibody, on average",15.9%
same,Lysis of CD1d high CLL cells,primary CLL cells; [14],74.5%±19.1
same,Lysis of CD1d low CLL cells,primary CLL cells; [14],49.3%±6.6
same,Upregulation of activation marker CD25 on patient Vγ9Vδ2-T cells,"[7]; overnight culture of CLL PBMC, 1D7-5C8 50 nM",20.8 fold
same,Cytokine production by patient-derived Vγ9Vδ2-T cells,"[7]; overnight, 50 nM",induced production of IFN-γ and TNF-α
same,Degranulation of patient-derived Vγ9Vδ2-T cells,"[7]; overnight, 50 nM",triggered Vγ9Vδ2-T cell degranulation
"CC1=C(/C=C/C(C)=C/C=C/C(C)=C/C(=O)O)C(C)(C)CCC1 [ATRA, all-trans retinoic acid]",CD1d relative MFI,[8]; primary CLL cells after 100 nM ATRA,504.6±366.0
same,Increase of CD1d levels,[8]; 1 nM ATRA,2.6 fold
same,Increase of CD1d levels,"[8]; 100 nM ATRA, on average",3.7 fold
same,Direct induction of cell death,Jeko-1 cells [9],did not induce cell death directly
same,ATRA concentration at which upregulation of CD1d expression was detectable,[10],10 pM
same,Sensitivity of ATRA-pretreated Jeko-1 cells to 1D7-5C8-induced cell death,"Jeko-1 cells [6]; 100 nM ATRA 48 hours, then Vγ9Vδ2-T cells 1:2 plus 1D7-5C8",more sensitive to bispecific antibody 1D7-5C8-induced cell death than control Jeko-1 cells
same,Sensitivity of ATRA-pretreated primary CLL cells to 1D7-5C8-mediated cell death,"primary CLL cells; 100 nM ATRA 48 hours, then Vγ9Vδ2-T cells 1:1 plus 1D7-5C8",did sensitize primary CLL cells to bispecific antibody 1D7-5C8-mediated cell death
B1,"Binding, Vγ9+",Vγ9 chain,− (“−” indicates a Mean Fluorescence Index (MFI) below 1.5)
same,"Binding, Vγ9Vδ2+",complete Vγ9Vδ2 TCR,++ (“++” indicates an MFI above 20)
same,"Binding, Vδ2+",Vδ2 chain,++ (“++” indicates an MFI above 20)
same,Inhibition of phosphoantigen-CD277 mediated Vγ9Vδ2-T cell activation,Vγ9Vδ2-T cells [11],not effective in inhibiting phosphoantigen-CD277 mediated Vγ9Vδ2-T cell activation
same,"Binding, Vγ9Vδ2−",[12],− (“−” indicates a Mean Fluorescence Index (MFI) below 1.5)
